Experimental data published in US12157741B2, “Macrocyclic inhibitors of DYRK1A” (DANA-FARBER CANCER INSTITUTE, INC., priority 2018, dated 2024).
Where two headings read alike, the source gives them in different places.

Key:
Type in all cases: binding
various enzymes [1] = target: various enzymes (Homo sapiens, UniProt Q9UPE1); details: compound 1 uM
Experimental: (§1) Ambit profiling was conducted in accordance with the manufacturer's instructions.

various enzymes [2] = target: T1, various enzymes (Homo sapiens, UniProt Q9NWZ3); details: compound 1 uM
T1 sequence (Q9NWZ3 1-460): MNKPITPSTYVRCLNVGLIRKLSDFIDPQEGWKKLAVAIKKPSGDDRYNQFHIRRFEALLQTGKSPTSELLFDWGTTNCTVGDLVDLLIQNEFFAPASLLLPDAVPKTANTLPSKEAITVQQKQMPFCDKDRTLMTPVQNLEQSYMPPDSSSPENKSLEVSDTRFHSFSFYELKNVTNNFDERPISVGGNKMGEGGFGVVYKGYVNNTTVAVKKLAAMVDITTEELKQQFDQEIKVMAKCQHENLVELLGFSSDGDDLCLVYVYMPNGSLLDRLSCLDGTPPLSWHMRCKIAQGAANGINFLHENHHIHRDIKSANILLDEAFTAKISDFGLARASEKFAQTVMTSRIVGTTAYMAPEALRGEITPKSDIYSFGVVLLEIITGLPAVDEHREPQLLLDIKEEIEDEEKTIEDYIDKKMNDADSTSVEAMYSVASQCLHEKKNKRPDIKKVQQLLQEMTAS
Experimental: as §1

various enzymes [3] = target: T2, various enzymes (Homo sapiens, UniProt Q6PHR2); details: compound 1 uM
T2 sequence (Q6PHR2 1-472): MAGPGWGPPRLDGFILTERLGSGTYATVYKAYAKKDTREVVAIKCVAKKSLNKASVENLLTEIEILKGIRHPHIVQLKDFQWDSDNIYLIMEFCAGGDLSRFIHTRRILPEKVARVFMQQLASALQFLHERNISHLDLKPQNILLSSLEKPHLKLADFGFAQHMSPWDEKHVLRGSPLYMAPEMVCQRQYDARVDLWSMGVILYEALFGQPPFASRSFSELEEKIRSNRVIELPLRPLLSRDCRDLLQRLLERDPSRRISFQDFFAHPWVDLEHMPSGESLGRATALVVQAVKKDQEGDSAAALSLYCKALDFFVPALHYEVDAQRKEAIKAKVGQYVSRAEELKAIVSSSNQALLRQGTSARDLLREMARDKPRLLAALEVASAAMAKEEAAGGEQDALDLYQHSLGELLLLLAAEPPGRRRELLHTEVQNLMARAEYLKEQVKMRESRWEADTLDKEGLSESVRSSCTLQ
Experimental: as §1

various enzymes [4] = target: various enzymes (Homo sapiens, UniProt O14976); details: compound 1 uM
Experimental: as §1

various enzymes [5] = target: various enzymes (Homo sapiens, UniProt P17612); details: compound 1 uM
Experimental: as §1

various enzymes [6] = target: various enzymes (Homo sapiens, UniProt Q8NFD2); details: compound 1 uM
Experimental: as §1

various enzymes [7] = target: various enzymes (Homo sapiens, UniProt P08631); details: compound 1 uM
Experimental: as §1

various enzymes [8] = target: various enzymes (Homo sapiens, UniProt O94806); details: compound 1 uM
Experimental: as §1

various enzymes [9] = target: various enzymes (Homo sapiens, UniProt Q15303); details: compound 1 uM
Experimental: as §1

various enzymes [10] = target: various enzymes (Homo sapiens, UniProt P24941); details: compound 1 uM
Experimental: as §1

various enzymes [11] = target: various enzymes (Homo sapiens, UniProt P15056, V600E)
Experimental: as §1

various enzymes [12] = target: various enzymes (Homo sapiens, UniProt Q9UL54); details: compound 1 uM
Experimental: as §1

various enzymes [13] = target: various enzymes (Homo sapiens, UniProt O00444); details: compound 1 uM
Chain of various enzymes (Homo sapiens, UniProt O00444) (O00444 whole entry): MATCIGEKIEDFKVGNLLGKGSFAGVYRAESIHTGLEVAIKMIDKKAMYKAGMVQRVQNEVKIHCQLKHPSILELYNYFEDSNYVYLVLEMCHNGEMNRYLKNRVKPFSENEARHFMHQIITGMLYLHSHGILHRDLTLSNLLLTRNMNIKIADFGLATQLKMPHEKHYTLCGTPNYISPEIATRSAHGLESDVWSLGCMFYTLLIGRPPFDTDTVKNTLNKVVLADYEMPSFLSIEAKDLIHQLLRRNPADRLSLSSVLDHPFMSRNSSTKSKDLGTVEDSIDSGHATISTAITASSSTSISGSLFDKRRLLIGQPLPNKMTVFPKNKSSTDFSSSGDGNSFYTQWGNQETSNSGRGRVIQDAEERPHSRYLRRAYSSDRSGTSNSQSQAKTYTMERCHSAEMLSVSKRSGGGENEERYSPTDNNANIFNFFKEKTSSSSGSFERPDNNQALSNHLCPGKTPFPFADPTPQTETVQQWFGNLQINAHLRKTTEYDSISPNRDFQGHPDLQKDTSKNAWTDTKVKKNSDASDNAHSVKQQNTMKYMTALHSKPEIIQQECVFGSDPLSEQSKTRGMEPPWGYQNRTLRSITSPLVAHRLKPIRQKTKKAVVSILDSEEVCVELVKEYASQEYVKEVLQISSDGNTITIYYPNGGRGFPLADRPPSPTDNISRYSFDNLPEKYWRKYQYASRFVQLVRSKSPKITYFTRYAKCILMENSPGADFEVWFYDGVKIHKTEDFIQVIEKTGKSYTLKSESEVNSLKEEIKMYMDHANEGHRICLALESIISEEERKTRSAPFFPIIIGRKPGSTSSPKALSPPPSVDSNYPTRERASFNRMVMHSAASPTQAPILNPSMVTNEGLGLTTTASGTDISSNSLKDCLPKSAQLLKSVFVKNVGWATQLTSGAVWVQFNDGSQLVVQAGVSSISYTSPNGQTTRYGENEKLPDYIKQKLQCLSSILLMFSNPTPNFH
Experimental: as §1

various enzymes [14] = target: various enzymes (Homo sapiens, UniProt P22694); details: compound 1 uM
Experimental: as §1

various enzymes [15] = target: various enzymes (Homo sapiens, UniProt Q14012); details: compound 1 uM
Experimental: as §1

various enzymes [16] = target: various enzymes (Homo sapiens, UniProt P36888, D835V)
Experimental: as §1

various enzymes [17] = target: various enzymes (Homo sapiens, UniProt Q9UEE5); details: compound 1 uM
Chain of various enzymes (Homo sapiens, UniProt Q9UEE5) (Q9UEE5 whole entry): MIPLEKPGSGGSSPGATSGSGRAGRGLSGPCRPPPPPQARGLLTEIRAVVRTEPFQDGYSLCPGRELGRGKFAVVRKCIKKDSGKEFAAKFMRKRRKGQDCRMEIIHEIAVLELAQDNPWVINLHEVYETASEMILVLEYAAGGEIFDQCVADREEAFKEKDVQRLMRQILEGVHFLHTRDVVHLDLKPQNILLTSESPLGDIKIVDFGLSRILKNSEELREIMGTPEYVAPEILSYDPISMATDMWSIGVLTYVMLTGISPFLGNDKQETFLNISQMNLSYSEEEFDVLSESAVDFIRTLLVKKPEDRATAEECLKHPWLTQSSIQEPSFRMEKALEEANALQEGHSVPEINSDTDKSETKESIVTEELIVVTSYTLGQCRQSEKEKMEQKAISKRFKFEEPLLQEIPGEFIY
Experimental: as §1

various enzymes [18] = target: various enzymes (Homo sapiens, UniProt Q8NI60); details: compound 1 uM
Experimental: as §1

various enzymes [19] = target: various enzymes (Homo sapiens, UniProt Q9C098); details: compound 1 uM
Experimental: as §1

various enzymes [20] = target: various enzymes (Homo sapiens, UniProt P49840); details: compound 1 uM
Chain of various enzymes (Homo sapiens, UniProt P49840) (P49840 whole entry): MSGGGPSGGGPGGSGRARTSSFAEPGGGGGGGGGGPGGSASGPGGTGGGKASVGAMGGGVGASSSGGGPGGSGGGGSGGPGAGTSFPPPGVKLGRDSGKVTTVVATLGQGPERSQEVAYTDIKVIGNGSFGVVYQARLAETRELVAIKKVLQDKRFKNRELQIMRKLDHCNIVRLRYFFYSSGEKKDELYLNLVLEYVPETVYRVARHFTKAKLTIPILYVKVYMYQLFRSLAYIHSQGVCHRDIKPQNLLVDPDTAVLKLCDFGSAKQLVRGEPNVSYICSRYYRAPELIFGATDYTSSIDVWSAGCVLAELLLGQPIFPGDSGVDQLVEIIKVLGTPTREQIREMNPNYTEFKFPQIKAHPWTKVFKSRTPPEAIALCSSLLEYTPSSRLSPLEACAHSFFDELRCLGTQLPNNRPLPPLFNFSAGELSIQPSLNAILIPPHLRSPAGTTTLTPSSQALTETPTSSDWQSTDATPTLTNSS
Experimental: as §1

various enzymes [21] = target: various enzymes (Homo sapiens, UniProt Q9Y243); details: compound 1 uM
Chain of various enzymes (Homo sapiens, UniProt Q9Y243) (Q9Y243 whole entry): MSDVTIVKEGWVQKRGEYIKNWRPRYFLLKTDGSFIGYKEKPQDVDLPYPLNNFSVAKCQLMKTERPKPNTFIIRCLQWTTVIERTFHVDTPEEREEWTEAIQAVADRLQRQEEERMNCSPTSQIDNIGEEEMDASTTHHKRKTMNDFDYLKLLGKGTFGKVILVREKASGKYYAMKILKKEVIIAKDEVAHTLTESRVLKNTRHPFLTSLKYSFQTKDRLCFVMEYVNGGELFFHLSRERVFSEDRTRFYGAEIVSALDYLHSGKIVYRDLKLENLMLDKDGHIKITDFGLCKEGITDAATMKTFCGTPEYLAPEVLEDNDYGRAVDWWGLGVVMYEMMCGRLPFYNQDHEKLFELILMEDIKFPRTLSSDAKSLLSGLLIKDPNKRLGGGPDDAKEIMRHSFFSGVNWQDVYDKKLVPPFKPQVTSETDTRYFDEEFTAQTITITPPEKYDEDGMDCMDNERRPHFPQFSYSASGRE
Experimental: as §1

various enzymes [22] = target: various enzymes (Homo sapiens, UniProt P11362); details: compound 1 uM
Experimental: as §1

various enzymes [23] = target: various enzymes (Homo sapiens, UniProt Q13546); details: compound 1 uM
Chain of various enzymes (Homo sapiens, UniProt Q13546) (Q13546 whole entry): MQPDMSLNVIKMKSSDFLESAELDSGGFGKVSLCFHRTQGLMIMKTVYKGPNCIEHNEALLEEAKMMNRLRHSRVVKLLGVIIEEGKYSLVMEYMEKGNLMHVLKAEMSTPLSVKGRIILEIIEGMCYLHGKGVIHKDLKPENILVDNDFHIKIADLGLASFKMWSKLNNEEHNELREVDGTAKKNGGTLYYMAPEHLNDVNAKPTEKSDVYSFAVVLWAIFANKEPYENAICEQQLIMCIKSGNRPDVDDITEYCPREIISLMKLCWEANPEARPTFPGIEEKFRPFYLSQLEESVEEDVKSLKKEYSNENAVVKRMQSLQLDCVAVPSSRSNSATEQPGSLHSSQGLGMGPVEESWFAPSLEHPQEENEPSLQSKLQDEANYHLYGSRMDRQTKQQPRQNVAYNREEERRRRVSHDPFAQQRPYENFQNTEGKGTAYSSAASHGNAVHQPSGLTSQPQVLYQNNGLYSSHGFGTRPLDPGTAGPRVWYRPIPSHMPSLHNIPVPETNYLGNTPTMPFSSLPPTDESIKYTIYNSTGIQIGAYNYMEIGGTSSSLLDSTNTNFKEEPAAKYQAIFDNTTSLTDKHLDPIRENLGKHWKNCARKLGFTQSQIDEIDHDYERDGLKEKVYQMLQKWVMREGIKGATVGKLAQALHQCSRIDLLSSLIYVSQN
Experimental: as §1

various enzymes [24] = target: various enzymes (Homo sapiens, UniProt P00519, Y253F)
Experimental: as §1

various enzymes [25] = target: various enzymes (Homo sapiens, UniProt P10721); details: compound 1 uM
Chain of various enzymes (Homo sapiens, UniProt P10721) (P10721 26-976): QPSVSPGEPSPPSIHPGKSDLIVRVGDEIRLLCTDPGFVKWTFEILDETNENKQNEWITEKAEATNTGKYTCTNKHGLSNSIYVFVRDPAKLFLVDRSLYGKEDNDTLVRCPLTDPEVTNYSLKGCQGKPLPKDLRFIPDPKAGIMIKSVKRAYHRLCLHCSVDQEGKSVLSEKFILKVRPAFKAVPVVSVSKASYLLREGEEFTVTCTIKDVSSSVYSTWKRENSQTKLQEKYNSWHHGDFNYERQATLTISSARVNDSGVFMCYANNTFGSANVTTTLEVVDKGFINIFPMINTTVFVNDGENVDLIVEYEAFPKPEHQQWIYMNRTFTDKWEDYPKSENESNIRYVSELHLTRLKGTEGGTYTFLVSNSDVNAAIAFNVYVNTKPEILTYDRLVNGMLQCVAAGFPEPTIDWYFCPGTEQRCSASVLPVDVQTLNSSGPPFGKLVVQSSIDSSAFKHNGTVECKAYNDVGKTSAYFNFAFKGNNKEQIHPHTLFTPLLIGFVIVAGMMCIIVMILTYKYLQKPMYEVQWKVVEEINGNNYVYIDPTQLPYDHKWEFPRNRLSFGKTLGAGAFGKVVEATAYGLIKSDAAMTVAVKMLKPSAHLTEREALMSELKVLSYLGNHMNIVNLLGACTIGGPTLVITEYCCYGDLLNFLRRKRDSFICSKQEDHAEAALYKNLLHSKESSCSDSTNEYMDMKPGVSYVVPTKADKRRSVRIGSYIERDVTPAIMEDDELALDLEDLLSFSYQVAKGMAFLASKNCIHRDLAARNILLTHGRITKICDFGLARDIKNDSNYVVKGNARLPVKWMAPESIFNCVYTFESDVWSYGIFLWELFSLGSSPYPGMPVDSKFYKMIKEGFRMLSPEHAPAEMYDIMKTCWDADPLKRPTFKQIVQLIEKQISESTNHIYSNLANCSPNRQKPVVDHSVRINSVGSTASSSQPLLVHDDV
Experimental: as §1

various enzymes [26] = target: various enzymes (Homo sapiens, UniProt Q8TDR2); details: compound 1 uM
Experimental: as §1

various enzymes [27] = target: various enzymes (Homo sapiens, UniProt P00533, DEL752-759); details: compound 1 uM
Experimental: as §1

various enzymes [28] = target: various enzymes (Homo sapiens, UniProt Q9BYT3); details: compound 1 uM
Chain of various enzymes (Homo sapiens, UniProt Q9BYT3) (Q9BYT3 whole entry): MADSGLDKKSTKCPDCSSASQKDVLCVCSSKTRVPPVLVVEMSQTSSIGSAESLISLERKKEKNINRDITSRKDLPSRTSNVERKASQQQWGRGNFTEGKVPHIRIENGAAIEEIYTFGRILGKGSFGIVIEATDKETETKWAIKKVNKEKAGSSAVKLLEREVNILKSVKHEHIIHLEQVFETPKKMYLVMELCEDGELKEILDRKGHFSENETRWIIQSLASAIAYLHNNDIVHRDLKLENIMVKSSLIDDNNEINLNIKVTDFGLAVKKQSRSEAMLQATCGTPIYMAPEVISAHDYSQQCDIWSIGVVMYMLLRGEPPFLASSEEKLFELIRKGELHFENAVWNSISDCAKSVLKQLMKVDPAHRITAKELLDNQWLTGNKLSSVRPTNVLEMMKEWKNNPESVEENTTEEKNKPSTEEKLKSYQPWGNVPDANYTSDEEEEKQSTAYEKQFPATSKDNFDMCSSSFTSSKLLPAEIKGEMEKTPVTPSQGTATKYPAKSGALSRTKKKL
Experimental: as §1

various enzymes [29] = target: various enzymes (Homo sapiens, UniProt Q5VT25); details: compound 1 uM
Experimental: as §1

various enzymes [30] = target: various enzymes (Homo sapiens, UniProt P51617); details: compound 1 uM
Experimental: as §1

various enzymes [31] = target: various enzymes (Homo sapiens, UniProt Q9UM73, C1156Y)
Experimental: as §1

Chain of various enzymes (Homo sapiens, UniProt Q9UPE1) (Q9UPE1 whole entry): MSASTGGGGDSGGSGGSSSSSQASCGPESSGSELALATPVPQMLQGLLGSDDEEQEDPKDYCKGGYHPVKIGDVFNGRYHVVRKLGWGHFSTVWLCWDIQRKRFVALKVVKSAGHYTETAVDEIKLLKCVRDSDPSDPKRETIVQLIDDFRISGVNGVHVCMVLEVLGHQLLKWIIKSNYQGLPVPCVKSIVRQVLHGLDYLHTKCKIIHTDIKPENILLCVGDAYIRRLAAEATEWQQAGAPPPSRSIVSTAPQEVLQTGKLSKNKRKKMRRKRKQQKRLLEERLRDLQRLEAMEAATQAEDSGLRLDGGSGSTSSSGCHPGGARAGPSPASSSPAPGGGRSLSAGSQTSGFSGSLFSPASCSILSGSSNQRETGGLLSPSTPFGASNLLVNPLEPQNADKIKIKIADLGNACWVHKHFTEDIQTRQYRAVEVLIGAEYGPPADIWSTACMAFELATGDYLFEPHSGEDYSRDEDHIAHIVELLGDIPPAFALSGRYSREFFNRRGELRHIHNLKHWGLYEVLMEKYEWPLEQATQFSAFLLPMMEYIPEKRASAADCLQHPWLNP

Row | Structure (SMILES) | Ambit profiling: SRPK3 (various enzymes [1]) | Ambit profiling: IRAK4 (various enzymes [2]) | Ambit profiling: ULK3 (various enzymes [3]) | Ambit profiling: GAK (various enzymes [4]) | Ambit profiling: PKAC-alpha (various enzymes [5]) | Ambit profiling: ANKK1 (various enzymes [6]) | Ambit profiling: HCK (various enzymes [7]) | Ambit profiling: PRKD3 (various enzymes [8]) | Ambit profiling: ERBB4 (various enzymes [9]) | Ambit profiling: CDK2 (various enzymes [10]) | Ambit profiling: TAOK2 (various enzymes [12]) | Ambit profiling: PLK4 (various enzymes [13]) | Ambit profiling: PKAC-beta (various enzymes [14]) | Ambit profiling: CAMK1 (various enzymes [15]) | Ambit profiling: DRAK1 (various enzymes [17]) | Ambit profiling: ADCK3 (various enzymes [18]) | Ambit profiling: DCAMKL3 (various enzymes [19]) | Ambit profiling: GSK3A (various enzymes [20]) | Ambit profiling: AKT3 (various enzymes [21]) | Ambit profiling: FGFR1 (various enzymes [22]) | other results
1 | CC(C)N1Cc2nn(C)cc2-c2cnc3[nH]cc(c3c2)-c2cn(nc2C(F)(F)F)CCCC1=O [Compound 45, (Z)-5-isopropyl-31-methyl-13-(trifluoromethyl)-11H,21H,31H-5-aza-2(3,5)-pyrrolo[2,3-b]pyridina-1(4,1),3(4,3)-dipyrazolacyclononaphan-6-one] | 13 | 39 | 30 | 5.7 | 51 | 100 | 24 | 11 | 55 | 35 | 28 | 29 | 54 | 91 | 100 | 100 | 19 | 17 | 100 | 2.5 | Ambit profiling: BRAF(V600E) (various enzymes [11]; compound 1 uM): 100; Ambit profiling: FLT3(D835V) (various enzymes [16]; compound 1 uM): 0; Ambit profiling: RIPK1 (various enzymes [23]): 85; Ambit profiling: ABL1(V253F)-phosphorylated (various enzymes [24]; compound 1 uM): 76; Ambit profiling: KIT (various enzymes [25]): 6.5; Ambit profiling: KIT-autoinhibited (various enzymes [25]): 69; Ambit profiling: STK35 (various enzymes [26]): 100; Ambit profiling: EGFR(S752-I759del) (various enzymes [27]): 66; Ambit profiling: STK33 (various enzymes [28]): 71; Ambit profiling: MRCKA (various enzymes [29]): 100; Ambit profiling: IRAK1 (various enzymes [30]): 1.4; Ambit profiling: ALK(C1156Y) (various enzymes [31]; compound 1 uM): 16
2 | COc1c2c(nn1C)CN(C(C)C)C(=O)CCCn1cc(c(C(F)(F)F)n1)-c1c[nH]c3ncc-2cc13 [Compound 50, (Z)-5-isopropyl-35-methoxy-31-methyl-13-(trifluoromethyl)-11H,21H,31H-5-aza-2(3,5)-pyrrolo[2,3-b]pyridina-1(4,1),3(4,3)-dipyrazolacyclononaphan-6-one] | 38 | 20 | 73 | 4 | 72 | 94 | 8.1 | 15 | 32 | 62 | 69 | 10 | 45 | 53 | 100 | 73 | 56 | 93 | 100 | 5.8 | Ambit profiling: BRAF(V600E) (various enzymes [11]): 93; Ambit profiling: FLT3(D835V) (various enzymes [16]): 0; Ambit profiling: RIPK1 (various enzymes [23]): 59; Ambit profiling: ABL1(Y253F)-phosphorylated (various enzymes [24]): 10; Ambit profiling: KIT (various enzymes [25]): 2.9; Ambit profiling: KIT-autoinhibited (various enzymes [25]): 76; Ambit profiling: STK35 (various enzymes [26]): 94; Ambit profiling: EGFR(S752-I759del) (various enzymes [27]): 48; Ambit profiling: STK33 (various enzymes [28]): 23; Ambit profiling: MRCKA (various enzymes [29]): 99; Ambit profiling: IRAK1 (various enzymes [30]): 2.1; Ambit profiling: ALK(C1156Y) (various enzymes [31]): 26
